How the values were obtained:
rice [1] = experiment: Test B flooded paddy test; format: in vivo, Oryza sativa; conditions: 250 g ai/ha, Flood; scale of 0 to 100 where 0 is no effect and 100 is complete control
Protocol: (§1) Plant species in the flooded paddy test selected from rice (Oryza sativa), sedge, umbrella (small-flower umbrella sedge, Cyperus difformis), ducksalad (Heteranthera limosa), and barnyardgrass (Echinochloa crus-galli) were grown to the 2-leaf stage for testing. At time of treatment, test pots were flooded to 3 cm above the soil surface, treated by application of test compounds directly to the paddy water, and then maintained at that water depth for the duration of the test. Treated plants and controls were maintained in a greenhouse for 13 to 15 days, after which time all species were compared to controls and visually evaluated. Plant response ratings, summarized in Table B, are based on a scale of 0 to 100 where 0 is no effect and 100 is complete control. A dash (-) response means no test result.

pigweed = experiment: Test A pre-/postemergence herbicide test; format: in vivo, Amaranthus retroflexus
Method in brief: (§2)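 Visual injury ratings, 0 = no effect, 100 = complete control, taken ~10 days after treatment against untreated greenhouse controls. Preemergence: directed soil spray onto seeded loam/sand pots. Postemergence: spray onto plants at one- to two-leaf stage, 2–10 cm tall.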

ducksalad [2] = experiment: Test B flooded paddy test; format: in vivo, Heteranthera limosa; conditions: 250 g ai/ha, Flood; scale of 0 to 100 where 0 is no effect and 100 is complete control
Protocol: as §1

crabgrass, large = experiment: Test A pre-/postemergence herbicide test; format: in vivo, Digitaria sanguinalis
Method in brief: as §2

wheat = experiment: Test A pre-/postemergence herbicide test; format: in vivo, Triticum aestivum
Method in brief: as §2

velvetleaf = experiment: Test A pre-/postemergence herbicide test; format: in vivo, Abutilon theophrasti
Method in brief: as §2

barnyardgrass [3] = experiment: Test B flooded paddy test; format: in vivo, Echinochloa crus-galli; conditions: 250 g ai/ha, Flood; scale of 0 to 100 where 0 is no effect and 100 is complete control
Protocol: as §1

morningglory = experiment: Test A pre-/postemergence herbicide test; format: in vivo, Ipomoea spp.
Method in brief: as §2

barnyardgrass [4] = experiment: Test A pre-/postemergence herbicide test; format: in vivo, Echinochloa crus-galli
Method in brief: as §2

corn = experiment: Test A pre-/postemergence herbicide test; format: in vivo, Zea mays
Method in brief: as §2

sedge, umbrella [5] = experiment: Test B flooded paddy test; format: in vivo, Cyperus difformis; conditions: 250 g ai/ha, Flood; scale of 0 to 100 where 0 is no effect and 100 is complete control
Protocol: as §1

giant foxtail = experiment: Test A pre-/postemergence herbicide test; format: in vivo, Setaria faberii
Method in brief: as §2

ducksalad [6] = experiment: Test C flooded paddy test; format: in vivo, Heteranthera limosa; conditions: Flood
Method in brief: (§3)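 Visual injury scored against controls after 13 to 15 days in the greenhouse, using 0 (no effect) to 100 (complete control). Test compounds went straight into paddy water held 3 cm above the soil surface on 2-leaf-stage plants, with that flood depth maintained for the whole test.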

blackgrass = experiment: Test A postemergence herbicide test; format: in vivo, Alopecurus myosuroides
Method in brief: (§4)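 Injury was rated visually about 10 days after treatment on a 0 (no effect) to 100 (complete control) scale, compared with untreated plants. Test chemicals were sprayed postemergence onto greenhouse plants 2–10 cm high at one to two leaves, grown in a loam–sand blend.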

sedge, umbrella [7] = experiment: Test C flooded paddy test; format: in vivo, Cyperus difformis; conditions: Flood
Method in brief: as §3

ryegrass, Italian = experiment: Test A pre-/postemergence herbicide test; format: in vivo, Lolium multiflorum; conditions: for Plant response rating, Ryegrass, Italian: 0 to 100 scale
Method in brief: as §2

kochia = experiment: Test A pre-/postemergence herbicide test; format: in vivo, Kochia scoparia; conditions: for Plant response rating, Kochia: 0 to 100 scale
Method in brief: as §2

ragweed = experiment: Test A pre-/postemergence herbicide test; format: in vivo, Ambrosia elatior; conditions: for Plant response rating, Ragweed: 0 to 100 scale
Method in brief: as §2

barnyardgrass [8] = experiment: Test C flooded paddy test; format: in vivo, Echinochloa crus-galli; conditions: Flood
Method in brief: as §3

rice [9] = experiment: Test C flooded paddy test; format: in vivo, Oryza sativa; conditions: Flood
Method in brief: as §3

galium = experiment: Test A postemergence herbicide test; format: in vivo, Galium aparine
Method in brief: as §4

[10] = Postemergence, 1000 g ai/ha, 0 to 100 scale (0 no effect, 100 complete control)
[11] = Preemergence, 1000 g ai/ha, visual rating on 0 to 100 scale (0 no effect, 100 complete control), approx. 10 days
[12] = Postemergence, 125 g ai/ha, 0 to 100 scale, 0 no effect, 100 complete control
[13] = Postemergence, 500 g ai/ha, 0 to 100 scale (0 no effect, 100 complete control)
[14] = Preemergence, 125 g ai/ha, visual rating on 0 to 100 scale (0 no effect, 100 complete control)
[15] = preemergence, 500 g ai/ha, 0 to 100 scale
[16] = 125 g ai/ha, scale of 0 to 100 where 0 is no effect and 100 is complete control, 13 to 15 days
[17] = 250 g ai/ha, scale of 0 to 100 where 0 is no effect and 100 is complete control, 13 to 15 days
[18] = 125 g ai/ha, 0 to 100 scale, 0 is no effect, 100 is complete control
[19] = 125 g ai/ha, visual rating, 0 to 100 scale, 0 no effect, 100 complete control, approximately 10 days, preemergence
[20] = Postemergence, 125 g ai/ha, 0 to 100 scale, 0 is no effect, 100 is complete control
[21] = preemergence, 500 g ai/ha, 0 to 100 scale, 0 is no effect and 100 is complete control
[22] = 125 g ai/ha, visual rating, 0 no effect, 100 complete control, approximately 10 days, preemergence
[23] = Postemergence, 125 g ai/ha, 0 is no effect, 100 is complete control
[24] = preemergence, 500 g ai/ha, 0 is no effect and 100 is complete control

O=C1NCC(c2ccc(F)c(F)c2)C1C(=O)Nc1ccccc1 (racemic) [Compound 30]
0: Plant response rating, Rice (rice [1]) | Plant response rating, Pigweed (pigweed; [10]) | Plant response rating, Pigweed (pigweed; [11]) | Plant response rating, Ducksalad (ducksalad [2]) | Plant response rating, Wheat (wheat; [10]) | Plant response rating, Wheat (wheat; [11]) | Plant response rating, Velvetleaf (velvetleaf; [10]) | Plant response rating, Velvetleaf (velvetleaf; [11]) | Plant response rating, Barnyardgrass (barnyardgrass [3]) | Plant response rating, Morningglory (morningglory; [10]) | Plant response rating, Morningglory (morningglory; [11]) | Plant response rating, Corn (corn; [10]) | Plant response rating, Corn (corn; [11]) | Plant response rating, Sedge, Umbrella (sedge, umbrella [5])
80: Plant response rating, Crabgrass, Large (crabgrass, large; [10]) | Plant response rating, Foxtail, Giant (giant foxtail; [10])
90: Plant response rating, Crabgrass, Large (crabgrass, large; [11]) | Plant response rating, Barnyardgrass (barnyardgrass [4]; [10]) | Plant response rating, Barnyardgrass (barnyardgrass [4]; [11]) | Plant response rating, Foxtail, Giant (giant foxtail; [11])

O=C1NCC(c2ccccc2)C1C(=O)Nc1ccccc1C(F)(F)F (racemic) [Compound 82]
10: Plant response rating, Wheat (wheat; [13]) | Plant response rating, Morningglory (morningglory; [13])
20: Plant response rating, Velvetleaf (velvetleaf; [13]) | Foxtail, Giant plant response rating (giant foxtail; [14])
90: Plant response rating, Crabgrass, Large (crabgrass, large; [15])
0: Plant response rating, Pigweed (pigweed; [12]) | Plant response rating, Pigweed (pigweed; [13]) | Pigweed plant response rating (pigweed; [14]) | Plant response rating, Pigweed (pigweed; [15]) | Plant response rating, Wheat (wheat; [12]) | Wheat plant response rating (wheat; [14]) | Plant response rating, Wheat (wheat; [15]) | Plant response rating, Velvetleaf (velvetleaf; [12]) | Velvetleaf plant response rating (velvetleaf; [14]) | Plant response rating, Velvetleaf (velvetleaf; [15]) | Plant response rating, Barnyardgrass (barnyardgrass [3]) | Plant response rating, Morningglory (morningglory; [12]) | Plant response rating, Morningglory (morningglory; [15]) | Plant response rating, Barnyardgrass (barnyardgrass [4]; [12]) | Barnyardgrass plant response rating (barnyardgrass [4]; [14]) | Plant response rating, Corn (corn; [12]) | Plant response rating, Corn (corn; [13]) | Corn plant response rating (corn; [14]) | Plant response rating, Corn (corn; [15]) | Plant response rating, Foxtail, Giant (giant foxtail; [12])
80: Crabgrass, Large plant response rating (crabgrass, large; [14]) | Plant response rating, Sedge, Umbrella (sedge, umbrella [5])
50: Plant response rating, Crabgrass, Large (crabgrass, large; [12]) | Plant response rating, Barnyardgrass (barnyardgrass [4]; [13]) | Plant response rating, Barnyardgrass (barnyardgrass [4]; preemergence, 500 g ai/ha, 0 to 100 scale (0 no effect, 100 complete control))
70: Plant response rating, Ducksalad (ducksalad [2]) | Plant response rating, Crabgrass, Large (crabgrass, large; [13]) | Plant response rating, Foxtail, Giant (giant foxtail; [13]) | Plant response rating, Foxtail, Giant (giant foxtail; [15])

O=C1NCC(c2cccc(C(F)(F)F)c2)C1C(=O)Nc1cccc(F)c1 (racemic) [Compound 208]
15: Plant response rating, Rice (rice [9]; 1000 g ai/ha, scale 0 to 100)
80: Barnyardgrass plant response rating (0 to 100 scale, 0 is no effect, 100 is complete control) (barnyardgrass [4]; Postemergence, 500 g ai/ha) | Plant response rating, Foxtail, Giant (giant foxtail; [19])
20: Plant response rating, Blackgrass (blackgrass; [18]) | Plant response rating, Ryegrass, Italian (ryegrass, Italian; [24]) | Plant response rating, Kochia (kochia; [24]) | Ragweed plant response rating (0 to 100 scale, 0 is no effect, 100 is complete control) (ragweed; Postemergence, 500 g ai/ha) | Plant response rating, Barnyardgrass (barnyardgrass [8]; [17])
90: Plant response rating, Barnyardgrass (barnyardgrass [4]; [21]) | Plant response rating, Foxtail, Giant (giant foxtail; [20]) | Foxtail, Giant plant response rating (0 to 100 scale, 0 is no effect, 100 is complete control) (giant foxtail; Postemergence, 500 g ai/ha) | Plant response rating, Foxtail, Giant (giant foxtail; [21])
60: Blackgrass plant response rating (0 to 100 scale, 0 is no effect, 100 is complete control) (blackgrass; 500 g ai/ha) | Kochia plant response rating (0 to 100 scale, 0 is no effect, 100 is complete control) (kochia; Postemergence, 500 g ai/ha)
45: Plant response rating, Ducksalad (ducksalad [6]; [17]) | Plant response rating, Ducksalad (ducksalad [6]; 500 g ai/ha, scale 0 to 100) | Plant response rating, Barnyardgrass (barnyardgrass [8]; 500 g ai/ha, scale 0 to 100)
40: Ryegrass, Italian plant response rating (0 to 100 scale, 0 is no effect, 100 is complete control) (ryegrass, Italian; Postemergence, 500 g ai/ha) | Wheat plant response rating (0 to 100 scale, 0 is no effect, 100 is complete control) (wheat; Postemergence, 500 g ai/ha) | Plant response rating, Barnyardgrass (barnyardgrass [4]; [19])
65: Plant response rating, Barnyardgrass (barnyardgrass [8]; 1000 g ai/ha, scale 0 to 100)
0: Plant response rating, Ducksalad (ducksalad [6]; [16]) | Plant response rating, Sedge, Umbrella (sedge, umbrella [7]; [16]) | Plant response rating, Sedge, Umbrella (sedge, umbrella [7]; [17]) | Plant response rating, Sedge, Umbrella (sedge, umbrella [7]; 500 g ai/ha, scale 0 to 100) | Plant response rating, Sedge, Umbrella (sedge, umbrella [7]; 1000 g ai/ha, scale 0 to 100) | Plant response rating, Pigweed (pigweed; [19]) | Plant response rating, Pigweed (pigweed; [20]) | Pigweed plant response rating (0 to 100 scale, 0 is no effect, 100 is complete control) (pigweed; Postemergence, 500 g ai/ha) | Plant response rating, Pigweed (pigweed; [21]) | Plant response rating, Ryegrass, Italian (ryegrass, Italian; [22]) | Plant response rating, Ryegrass, Italian (ryegrass, Italian; [23]) | Plant response rating, Kochia (kochia; [22]) | Plant response rating, Kochia (kochia; [23]) | Plant response rating, Ragweed (ragweed; [22]) | Plant response rating, Ragweed (ragweed; [23]) | Plant response rating, Ragweed (ragweed; [24]) | Plant response rating, Barnyardgrass (barnyardgrass [8]; [16]) | Plant response rating, Wheat (wheat; [20]) | Plant response rating, Corn (corn; [20]) | Plant response rating, Rice (rice [9]; [16]) | Plant response rating, Rice (rice [9]; [17]) | Plant response rating, Rice (rice [9]; 500 g ai/ha, scale 0 to 100) | Plant response rating, Galium (galium; [18])
50: Plant response rating, Barnyardgrass (barnyardgrass [4]; [20]) | Corn plant response rating (0 to 100 scale, 0 is no effect, 100 is complete control) (corn; Postemergence, 500 g ai/ha) | Galium plant response rating (0 to 100 scale, 0 is no effect, 100 is complete control) (galium; 500 g ai/ha)
100: Plant response rating, Ducksalad (ducksalad [6]; 1000 g ai/ha, scale 0 to 100)

From patent US10294202B2, “Pyrrolidinones as herbicides” (FMC Corporation, priority 2013, dated 2019)
